# Test results: ChEMBL document CHEMBL1142573, “Suaveolindole, a new mass-limited antibacterial indolosesquiterpene from Greenwayodendron suaveolens obtained via high-throughput natural products chemistry methods” (2005)
# Legend:
# Type in all cases: functional
# Enterococcus faecalis = test: Antimicrobial activity against vancomycin-resistant Enterococcus faecalis VRE ATCC 51575
# Pseudomonas aeruginosa = test: Antimicrobial activity against Pseudomonas aeruginosa ATCC 9027
# Staphylococcus aureus [1] = test: Antimicrobial activity against methicillin-resistant Staphylococcus aureus ATTC 33591
# Bacillus subtilis = test: Antimicrobial activity against Bacillus subtilis ATCC 43223
# Staphylococcus aureus [2] = test: Antimicrobial activity against Staphylococcus aureus ATTC 6538P
# Klebsiella pneumoniae = test: Antimicrobial activity against Klebsiella pneumoniae ATCC 10031
smiles,measurement,setting,value
CC(C)=C1CC[C@@H](C)[C@@](C)(Cc2c[nH]c3ccccc23)[C@@H]1CCC(=O)O [SUAVEOLINDOLE],MIC,Enterococcus faecalis,> 32 µg/mL
same,MIC,Pseudomonas aeruginosa,> 128 µg/mL
same,MIC,Staphylococcus aureus [1],8 µg/mL
same,MIC,Bacillus subtilis,4 µg/mL
same,MIC,Staphylococcus aureus [2],8 µg/mL
same,MIC,Klebsiella pneumoniae,> 128 µg/mL
